Molecules are shown by their SMILES. Where only a bound is given, the exact number is not on record here.

For the assay, the target named is T1, human TLR9 (Homo sapiens, UniProt Q9NR96).
T1 sequence (Q9NR96 26-1032): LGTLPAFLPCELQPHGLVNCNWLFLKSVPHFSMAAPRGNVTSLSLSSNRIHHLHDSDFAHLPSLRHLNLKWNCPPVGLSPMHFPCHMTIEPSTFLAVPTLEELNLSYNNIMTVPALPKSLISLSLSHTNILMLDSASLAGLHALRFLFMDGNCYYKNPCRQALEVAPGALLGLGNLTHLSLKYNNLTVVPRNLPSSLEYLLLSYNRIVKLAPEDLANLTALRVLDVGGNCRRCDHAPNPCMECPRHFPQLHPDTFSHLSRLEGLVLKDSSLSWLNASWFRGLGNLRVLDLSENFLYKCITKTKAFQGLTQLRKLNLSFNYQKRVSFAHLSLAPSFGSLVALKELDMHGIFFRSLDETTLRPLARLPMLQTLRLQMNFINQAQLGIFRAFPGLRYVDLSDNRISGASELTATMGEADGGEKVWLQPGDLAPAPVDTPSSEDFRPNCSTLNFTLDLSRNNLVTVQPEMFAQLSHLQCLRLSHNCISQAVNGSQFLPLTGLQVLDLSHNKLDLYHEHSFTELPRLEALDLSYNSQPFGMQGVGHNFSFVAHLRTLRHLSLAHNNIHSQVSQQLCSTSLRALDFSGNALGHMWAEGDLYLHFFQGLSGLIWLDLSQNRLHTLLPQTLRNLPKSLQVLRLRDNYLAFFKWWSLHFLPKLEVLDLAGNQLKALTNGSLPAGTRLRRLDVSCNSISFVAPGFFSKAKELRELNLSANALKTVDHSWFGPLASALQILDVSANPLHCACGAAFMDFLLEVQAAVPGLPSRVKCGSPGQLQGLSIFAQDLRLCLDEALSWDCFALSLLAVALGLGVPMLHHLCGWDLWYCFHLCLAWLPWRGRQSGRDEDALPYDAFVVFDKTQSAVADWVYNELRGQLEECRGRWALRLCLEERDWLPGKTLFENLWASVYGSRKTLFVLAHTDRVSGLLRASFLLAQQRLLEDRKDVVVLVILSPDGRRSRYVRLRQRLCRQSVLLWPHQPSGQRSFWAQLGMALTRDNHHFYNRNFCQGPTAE
The experiment in a line: HEK293-Blue-hTLR-9 cells assay (SEAP reporter, ODN2006 stimulation). The format is cell-based. The settings on record: HEK293-Blue-hTLR9 cells, ODN2006 ligand, 20 hrs; read-out: HEK/hTLR9 IC50. As for the experimental part: The following tests were carried out in order to determine the activity of the compounds of formula (I), (Ia) or (Ib) in HEK293-Blue-hTLR-7/8/9 cells assay.
HEK293-Blue-hTLR-9 Cells Assay:
A stable HEK293-Blue-hTLR-9 cell line was purchased from InvivoGen (Cat. #: hkb-htlr9, San Diego, California, USA). These cells were originally designed for studying the stimulation of human TLR9 by monitoring the activation of NF-κB. A SEAP (secreted embryonic alkaline phosphatase) reporter gene was placed under the control of the IFN-β minimal promoter fused to five NF-κB and AP-1-binding sites. The SEAP was induced by activating NF-κB and AP-1 via stimulating HEK-Blue hTLR9 cells with TLR9 ligands. Therefore the reporter expression was declined by TLR9 antagonist under the stimulation of a ligand, such as ODN2006 (Cat. #: tlrl-2006-1, Invivogen, San Diego, California, USA), for incubation of 20 hrs. The cell culture supernatant SEAP reporter activity was determined using QUANTI-Blue™ kit (Cat. #: rep-qb1, Invivogen, San Diego, California, USA) at a wavelength of 640 nm, a detection medium that turns purple or blue in the presence of alkaline phosphatase.
HEK293-Blue-hTLR9 cells were incubated at a density of 250,000˜450,000 cells/mL in a volume of 170 μL in a 96-well plate in Dulbecco's Modified Eagle's medium (DMEM) containing 4.5 g/L glucose, 50 U/mL penicillin, […], 2 mM L-glutamine, 10% (v/v) heat-inactivated fetal bovine serum with addition of 20 μL test compound in a serial dilution in the presence of final DMSO at 1% and 10 μL of 20 uM ODN2006 in above DMEM, perform incubation under 37° C. in a CO2 incubator for 20 hrs. Then 20 μL of the supernatant from each well was incubated with 180 μL Quanti-blue substrate solution at 37° C. for 2 h and the absorbance was read at 620-655 nm using a spectrophotometer. The signaling pathway that TLR9 activation leads to downstream NF-κB activation has been widely accepted, and therefore similar reporter assay was modified for evaluating TLR9 antagonist.
In the case of `C[C@@H]1CN(c2ccc(C#N)c3ncccc23)C[C@@H]2CCN(c3ccc(N4CCNCC4)nc3)CCN21` [Example 1, 5-[(4R,10aS)-4-methyl-8-(6-piperazin-1-yl-3-pyridyl)-1,3,4,6,7,9,10,10a-octahydropyrazino [1,2-d][1,4]diazepin-2-yl]quinoline-8-carbonitrile], the IC50 came out at 207 nM.
For the compound `C[C@@H]1CN(c2ccc(C#N)c3ncccc23)C[C@@H]2CCN(c3cnc(N4CCNCC4)nc3)CCN21` [Example 2, 5-[(4R,10aS)-4-methyl-8-(2-piperazin-1-ylpyrimidin-5-yl)-1,3,4,6,7,9,10,10a-octahydropyrazino[1,2-d][1,4]diazepin-2-yl]quinoline-8-carbonitrile], the IC50 amounted to 59.3 nM.
Regarding `C[C@@H]1CN(c2ccc(C#N)c3ncccc23)C[C@@H]2CCN(c3ccc([C@H]4CNCCO4)cc3)CCN21` [Example 3, 5-[(4R,10aS)-4-methyl-8-[4-[(2S)-morpholin-2-yl]phenyl]-1,3,4,6,7,9,10,10a-octahydropyrazino[1,2-d][1,4]diazepin-2-yl]quinoline-8-carbonitrile], the IC50 was 52 nM.
On to `C[C@@H]1CN(c2ccc(C#N)c3ncccc23)C[C@@H]2CCN(c3cncc4c3CCNC4)CCN21` [Example 4, 5-[(4R,10aS)-4-methyl-8-(5,6,7,8-tetrahydro-2,7-naphthyridin-4-yl)-1,3,4,6,7,9,10,10a-octahydropyrazino[1,2-d][1,4]diazepin-2-yl]quinoline-8-carbonitrile], for which the IC50 was below 31.8 nM.
With `C[C@@H]1CN(c2ccc(C#N)c3ncccc23)C[C@@H]2CCN(c3ccc4c(n3)CNCC4)CCN21` [Example 5, 5-[(4R,10aS)-4-methyl-8-(5,6,7,8-tetrahydro-1,7-naphthyridin-2-yl)-1,3,4,6,7,9,10,10a-octahydropyrazino[1,2-d][1,4]diazepin-2-yl]quinoline-8-carbonitrile], the IC50 came to 72.1 nM.
Turning to `C[C@@H]1CN(c2ccc(C#N)c3ncccc23)C[C@@H]2CCN(c3ccc4c(n3)CCNC4)CCN21` [Example 6, 5-[(4R,10aS)-4-methyl-8-(5,6,7,8-tetrahydro-1,6-naphthyridin-2-yl)-1,3,4,6,7,9,10,10a-octahydropyrazino[1,2-d][1,4]diazepin-2-yl]quinoline-8-carbonitrile], the IC50 was 101 nM.
`C[C@@H]1CN(c2ccc(C#N)c3ncccc23)C[C@@H]2CCN(c3cc4c(cn3)CNCC4)CCN21` [Example 7, 5-[(4R,10aS)-4-methyl-8-(5,6,7,8-tetrahydro-2,7-naphthyridin-3-yl)-1,3,4,6,7,9,10,10a-octahydropyrazino[1,2-d][1,4]diazepin-2-yl]quinoline-8-carbonitrile]: the IC50 came out at 81.9 nM.
`C[C@@H]1CN(c2ccc(C#N)c3ncccc23)C[C@@H]2CCN(Cc3cc4c(cn3)CNCC4)CCN21` [Example 8, 5-[(4R,10aS)-4-methyl-8-(5,6,7,8-tetrahydro-2,7-naphthyridin-3-ylmethyl)-1,3,4,6,7,9,10,10a-octahydropyrazino[1,2-d][1,4]diazepin-2-yl]quinoline-8-carbonitrile]: the IC50 was 62.2 nM.
For `C[C@@H]1CN(c2ccc(C#N)c3ncccc23)C[C@@H]2CCN(Cc3cc4c(cn3)CCNC4)CCN21` [Example 9, 5-[(4R,10aS)-4-methyl-8-(5,6,7,8-tetrahydro-2,6-naphthyridin-3-ylmethyl)-1,3,4,6,7,9,10,10a-octahydropyrazino[1,2-d][1,4]diazepin-2-yl]quinoline-8-carbonitrile], the IC50 amounted to 35 nM.
For `C[C@@H]1CN(c2ccc(C#N)c3ncccc23)C[C@@H]2CCN(Cc3cnc4c(c3)CNCC4)CCN21` [Example 10, 5-[(4R,10aS)-4-methyl-8-(5,6,7,8-tetrahydro-1,6-naphthyridin-3-ylmethyl)-1,3,4,6,7,9,10,10a-octahydropyrazino[1,2-d][1,4]diazepin-2-yl]quinoline-8-carbonitrile], the IC50 was below 31.8 nM.
Turning to `C[C@@H]1CN(c2ccc(C#N)c3ncccc23)C[C@@H]2CCN(Cc3ccc4c(c3)CNCC4)CCN21` [Example 12, 5-[(4R,10aS)-4-methyl-8-(1,2,3,4-tetrahydroisoquinolin-7-ylmethyl)-1,3,4,6,7,9,10,10a-octahydropyrazino[1,2-d][1,4]diazepin-2-yl]quinoline-8-carbonitrile], the IC50 was found to be 43.8 nM.
Turning to `C[C@@H]1CN(c2ccc(C#N)c3ncccc23)C[C@@H]2CCN(Cc3ncc(N4CCNCC4)cn3)CCN21` [Example 13, 5-[(4R,10aS)-4-methyl-8-[(5-piperazin-1-ylpyrimidin-2-yl)methyl]-1,3,4,6,7,9,10,10a-octahydropyrazino[1,2-d][1,4]diazepin-2-yl]quinoline-8-carbonitrile], the IC50 was determined as 96.4 nM.
As for `C[C@@H]1CN(c2ccc(C#N)c3ncccc23)C[C@@H]2CCN(Cc3cncc(N4CCNCC4)c3)CCN21` [Example 16, 5-[(4R,10aS)-4-methyl-8-[(5-piperazin-1-yl-3-pyridyl)methyl]-1,3,4,6,7,9,10,10a-octahydropyrazino[1,2-d][1,4]diazepin-2-yl]quinoline-8-carbonitrile], the IC50 is 35.4 nM.
Consider `C[C@@H]1CN(c2ccc(C#N)c3ncccc23)C[C@@H]2CCN(Cc3cccc(N4CCNCC4)n3)CCN21` [Example 18, 5-[(4R,10aS)-4-methyl-8-[(6-piperazin-1-yl-2-pyridyl)methyl]-1,3,4,6,7,9,10,10a-octahydropyrazino[1,2-d][1,4]diazepin-2-yl]quinoline-8-carbonitrile], for which the IC50 was below 31.8 nM.
To `C[C@@H]1CN(c2ccc(C#N)c3ncccc23)C[C@@H]2CCN(Cc3ccc(N4CCNCC4)cn3)CCN21` [Example 19, 5-[(4R,10aS)-4-methyl-8-[(5-piperazin-1-yl-2-pyridyl)methyl]-1,3,4,6,7,9,10,10a-octahydropyrazino[1,2-d][1,4]diazepin-2-yl]quinoline-8-carbonitrile] belongs 45.8 nM; to `C[C@@H]1CN(c2ccc(C#N)c3ncccc23)C[C@@H]2CCN(Cc3ccc(N4C[C@@H](N)[C@@H](F)C4)cn3)CCN21` [Example 20, 5-[(4R,10aS)-8-[[5-[(3R,4S)-3-amino-4-fluoro-pyrrolidin-1-yl]-2-pyridyl]methyl]-4-methyl-1,3,4,6,7,9,10,10a-octahydropyrazino[1,2-d][1,4]diazepin-2-yl]quinoline-8-carbonitrile], 34.9 nM; to `CO[C@@H]1CN(c2ccc(CN3CC[C@H]4CN(c5ccc(C#N)c6ncccc56)C[C@@H](C)N4CC3)nc2)C[C@H]1N` [Example 22, 5-[(4R,10aS)-8-[[5-[(3R,4R)-3-amino-4-methoxy-pyrrolidin-1-yl]-2-pyridyl]methyl]-4-methyl-1,3,4,6,7,9,10,10a-octahydropyrazino[1,2-d][1,4]diazepin-2-yl]quinoline-8-carbonitrile], 62.8 nM.
In the case of `CO[C@@H]1CN(c2cnc(CN3CC[C@H]4CN(c5ccc(C#N)n6nccc56)C[C@@H](C)N4CC3)c(F)c2)C[C@H]1N` [Example 26, 4-[(4R,10aS)-8-[[5-[(3R,4R)-3-amino-4-methoxy-pyrrolidin-1-yl]-3-fluoro-2-pyridyl]methyl]-4-methyl-1,3,4,6,7,9,10,10a-octahydropyrazino[1,2-d][1,4]diazepin-2-yl]pyrazolo[1,5-a]pyridine-7-carbonitrile], the IC50 turned out to be 87.4 nM.

The values are drawn from US12421240B2, “Hydropyrazino[1,2-d][1,4]diazepine compounds for the treatment of autoimmune disease” (Hoffmann-La Roche Inc., priority 2019, dated 2025).
